Reference: patent publication US10004715B2, “Entacapone for prevention and treatment of atherosclerosis” (National Institute of Biological Sciences, Beijing, priority 2012, dated 2018)
pIC50: −log10 of the molar value.

Legend:
[1] = tested on: male wistar rats fed with high-fat diet; assay: In vivo anti-obesity efficacy in rats fed high-fat diet; parameters: species or system rat; settings: 85.6 mg/day by gavage
Description: Total of 23 male wistar rats (6 weeks) were fed with high-fat diet (45% fat, OpenSource Diets D12451), and entacapone (85.6 mg/day) was administered to 12 randomly selected rats by gavage. After 8 weeks, the mean body weight of drug treatment group was about 11% less than that of control group (*p-value<0.05) (FIG. 4).

[2] = molecular target: FTO protein (Homo sapiens, UniProt Q9C0B1); assay: FTO demethylation assay (enzymatic inhibition); assay type: biochemical; settings: substrate 0.5 μM, enzyme 0.1 μM; ssDNA with N6-mA; HPLC-MS/MS; read-out: IC50 against FTO
Description: We measured the compound's inhibition activity in the demethylation reaction catalyzed by FTO. The assay was performed in 100 μl of reaction system containing 50 mM HEPES buffer (pH=7.0), 100 μM of a-KG, 100 μM of (NH4)2Fe(SO4)2, 1 mM of L-ascorbic acid, 50 ng/ml of BSA, 0.5 μM of ssDNA with N^6-mA (5′-ATTGTCA(m^6A)CAGCAGA-3′), and 0.1 μM of FTO protein. The reaction system was incubated at 37° C. for 2 h and stopped by heating at 95° C. for […] ssDNA was digested by nuclease P1 and alkaline phosphatase. The concentrations of N^6-mA and A were analyzed by HPLC-MS/MS. When concentration of substrate and enzyme are 0.5 μM and 0.1 μM, respectively, the measured IC50 value of entacapone against FTO is ˜9 μM (FIG. 2).

[3] = tested on: Ldlr−/− mice fed western style diet; assay: Atherosclerosis model: Ldlr-deficient mice; assay type: in vivo, mouse; settings: 300 mg/kg orally blended with diet, after 8 weeks; Oil red O staining; p-value=0.08
Description: Atherosclerosis Model: Ldlr-Deficient Mice. We measured entacapone's anti-atherosclerosis efficacy using Ldlr^−/− mice fed western style diet (20% fat, 0.15% cholesterol), entacapone (300 mg/kg) was orally administered by blending with diet. After 8 weeks, the mean lesion area in aortic sinuses of drug treatment group was 28% less than that of control group (p-value=0.08) (FIG. 8). Therefore, entacapone reduces atherosclerosis symptom, comparing with the control.

[4] = tested on: obese male C57BL/6 mice fed with high-fat diet; assay: In vivo anti-obesity efficacy in obese mice; parameters: species or system mouse; settings: 300 mg/kg orally blended with diet, after 13 weeks; p<0.05
Description: Male C57BL/6 mice were fed with high-fat diet (45% fat, OpenSource Diets D12451) for 8 weeks. Then obese mice with body weight 20% larger than that of mice fed with normal diet (20 mice) were selected for experiments. Entacapone (300 mg/kg) was orally administered to 10 randomly selected obese mice by blending with diet. After 13 weeks, the mean body weight gain of drug treatment group was about 11% less than that of control group (*p-value<0.05) (FIG. 9).

[5] = tested on: Huh-7 cell line; assay: Cellular triglyceride synthesis inhibition; assay type: cell-based; settings: Homo sapiens, dyeing method
Text: FIG. 3. The dose-dependent inhibition activity of entacapone on triglyceride synthesis in Huh-7 cell line. The X-axis is the compound concentration. The Y-axis is “read-out” of the triglyceride concentration using dyeing method.

Sequence of FTO protein (Q9C0B1 whole entry): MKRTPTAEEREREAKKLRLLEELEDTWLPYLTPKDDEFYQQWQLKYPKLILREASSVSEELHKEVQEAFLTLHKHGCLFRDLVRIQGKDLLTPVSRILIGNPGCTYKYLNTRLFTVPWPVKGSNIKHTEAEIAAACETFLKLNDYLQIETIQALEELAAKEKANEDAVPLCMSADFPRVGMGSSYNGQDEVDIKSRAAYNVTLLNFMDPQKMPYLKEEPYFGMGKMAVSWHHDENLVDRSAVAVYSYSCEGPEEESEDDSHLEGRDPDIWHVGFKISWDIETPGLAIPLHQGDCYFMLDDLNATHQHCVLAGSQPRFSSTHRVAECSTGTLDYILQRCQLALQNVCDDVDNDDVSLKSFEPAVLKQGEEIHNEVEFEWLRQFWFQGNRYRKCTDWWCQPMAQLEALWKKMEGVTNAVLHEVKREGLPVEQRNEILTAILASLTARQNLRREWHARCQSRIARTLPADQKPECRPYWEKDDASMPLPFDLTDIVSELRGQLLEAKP

Difference in serum Creatine kinase (drug treatment vs control group) ([1]; rat serum, p-value 0.2311): −17.6%
Difference in serum Glutamic-pyruvic transaminase (drug treatment vs control group) ([1]; rat serum, p-value 0.4962): −5.5%
Difference in serum Bilirubin (drug treatment vs control group) ([1]; rat serum, p-value 0.5814): −10.1%
Difference in serum Albumin ratio (drug treatment vs control group) ([1]; rat serum, p-value 0.9473): −0.063%
pIC50 [2]: ~5.05
pIC50 [5]: ~4.82
Compound: CCN(CC)C(=O)/C(C#N)=C/c1cc(O)c(O)c([N+](=O)[O-])c1 [entacapone, (2E)-2-cyano-3-(3,4-dihydroxy-5-nitrophenyl)-N,N-diethylprop-2-enamide]
mean body weight less than that of control group ([1]; after 8 weeks, high-fat diet, p<0.05): about 11%
decrease of LDL-c in serum compared to control group ([1]; after 8 weeks, p<0.005): about 40%
adipose tissue change vs control (H&E staining) ([1]; high-fat diet): reduced size of adipose cells
body-weight-normalized food intake vs control group ([1]; high-fat diet): no difference
hepatic tissue change vs control (H&E staining) ([1]; high-fat diet): reduced level of liver steatosis
Difference in serum LDL-cholesterol (drug treatment vs control group) ([1]; rat serum, p-value 0.0005): −41.2%
Difference in serum Cholesterol (drug treatment vs control group) ([1]; rat serum, p-value 0.6455): −3.3%
Difference in serum Triglyceride (drug treatment vs control group) ([1]; rat serum, p-value 0.8023): −3.8%
Difference in serum HDL-cholesterol (drug treatment vs control group) ([1]; rat serum, p-value 0.9972): −0.026%
mean lesion area in aortic sinuses less than that of control group [3]: 28%
mean body weight gain less than that of control group [4]: about 11%
